{
  "source": "paper PMC5939596",
  "about": "(Cell chemical biology, 2016)",
  "key": {"legumain [1]": {"target": "T1, legumain (Homo sapiens, UniProt Q99538)", "T1 sequence (Q99538 18-323 limits assumed)": "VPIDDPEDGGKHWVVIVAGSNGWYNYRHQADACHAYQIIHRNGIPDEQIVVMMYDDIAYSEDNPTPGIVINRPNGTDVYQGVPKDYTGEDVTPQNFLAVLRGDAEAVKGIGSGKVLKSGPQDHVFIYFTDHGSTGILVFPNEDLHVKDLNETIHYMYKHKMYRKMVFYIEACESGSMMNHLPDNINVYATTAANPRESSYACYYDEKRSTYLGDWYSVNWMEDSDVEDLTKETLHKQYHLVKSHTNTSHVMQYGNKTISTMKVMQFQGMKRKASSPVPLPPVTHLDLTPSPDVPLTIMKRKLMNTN", "assay": "pH dependence of legumain activity towards P1-Asn and P1-Asp substrates", "assay_type": "biochemical"}, "legumain [2]": {"target": "T1, legumain", "assay": "Kinetics of ACC substrate hydrolysis by legumain", "assay_type": "biochemical", "settings": "for kcat/Km: hydrolysis by legumain"}, "[3]": {"target": "T2, autoactivated recombinant human legumain (Homo sapiens, UniProt Q99538)", "T2 sequence (Q99538 18-323 limits assumed)": "T1 sequence (Q99538 18-323 limits assumed)", "assay": "Km of legumain cleavage of Z-Ala-Ala-Asn-AMC", "assay_type": "biochemical", "settings": "2.5 nM autoactivated rhLeg, substrate 1.565–200 nM, legumain assay buffer pH 5.8, 30°C"}, "legumain [4]": {"target": "T1, legumain", "assay": "Direct probe binding and inhibition of legumain in M38L cell lysate", "assay_type": "biochemical", "settings": "M38L lysate 3.5 μg total protein, probe 0–10 μM, pH 5.8, 30 min at 30°C"}, "legumain [5]": {"target": "T1, legumain", "assay": "Probe labelling in lysates of caspase-8/caspase-3 cotransfected M38L cells", "assay_type": "cell-based", "settings": "for probe labelling of legumain: probe 1 μM, 30 min at 30°C, pH 5.8 or 7.4, immunoblotting"}, "caspase-3 [6]": {"target": "T3, caspase-3 (Homo sapiens, UniProt P42574)", "T3 sequence (P42574 29-175 limits assumed)": "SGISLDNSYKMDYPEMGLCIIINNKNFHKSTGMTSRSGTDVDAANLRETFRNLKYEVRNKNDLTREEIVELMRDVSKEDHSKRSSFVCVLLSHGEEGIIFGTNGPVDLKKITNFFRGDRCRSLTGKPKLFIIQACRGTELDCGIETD", "T3 sequence (P42574 176-277 limits assumed)": "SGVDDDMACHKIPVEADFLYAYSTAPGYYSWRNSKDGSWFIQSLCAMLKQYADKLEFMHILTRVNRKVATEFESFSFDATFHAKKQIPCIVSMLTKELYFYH", "assay": "Probe labelling in lysates of caspase-8/caspase-3 cotransfected M38L cells", "assay_type": "cell-based", "settings": "probe 1 μM, 30 min at 30°C, pH 5.8 or 7.4, immunoblotting"}, "prolegumain (56 kDa)": {"target": "T4, prolegumain (56 kDa) (Homo sapiens, UniProt Q99538)", "T4 sequence (Q99538 18-433)": "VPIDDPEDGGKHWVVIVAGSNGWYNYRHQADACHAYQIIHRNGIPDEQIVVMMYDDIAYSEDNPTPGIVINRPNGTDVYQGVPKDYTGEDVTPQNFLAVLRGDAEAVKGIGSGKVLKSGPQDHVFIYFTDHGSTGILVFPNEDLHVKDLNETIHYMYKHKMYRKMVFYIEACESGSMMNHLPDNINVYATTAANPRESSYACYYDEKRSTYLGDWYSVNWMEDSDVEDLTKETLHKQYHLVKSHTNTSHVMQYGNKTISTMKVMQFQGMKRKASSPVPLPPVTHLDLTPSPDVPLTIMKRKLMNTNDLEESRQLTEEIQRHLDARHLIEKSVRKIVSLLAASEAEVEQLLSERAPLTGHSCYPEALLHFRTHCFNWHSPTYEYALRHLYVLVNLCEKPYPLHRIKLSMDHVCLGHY", "assay": "Probe binding to prolegumain", "settings": "immunoblotting"}, "[7]": {"target": "T5, recombinant auto-activated legumain (46 kDa) (Homo sapiens, UniProt Q99538)", "T5 sequence (Q99538 18-323 limits assumed)": "T1 sequence (Q99538 18-323 limits assumed)", "assay": "Probe binding to recombinant enzyme", "settings": "probe 10 nM, enzyme 50 nM, pH 5.8 and pH 7.2"}, "[8]": {"target": "T2, autoactivated recombinant human legumain", "assay": "Inhibition rate constants"}, "caspase-3 [9]": {"target": "T3, caspase-3", "assay": "Probe binding in cytochrome c/dATP-activated FreeStyle 293-F cytosolic extract", "settings": "probe 0–1 μM, pH 5.8 and 7.2, 5 or 30 min at 30°C, immunoblotting"}, "[10]": {"tested_on": "legumain over-expressing M38L cells", "settings": "time-course 0–24 h, immunoblotting"}},
  "note": "Non-standard residues stand in square brackets, D forms with d. *: point of attachment. ACC = NC(=O)Cc1cc(=O)oc2cc(N*)ccc12; Tic = O=C(O)[C@@H]1Cc2ccccc2CN1; AMC = Cc1cc(=O)oc2cc(N*)ccc12; Cbz = O=C(OCc1ccccc1)*",
  "data": [
    {"substance": "Ac-D-Tyr-Tic-Thr-Asn-ACC", "values": [
      {"measurement": "optimal pH for legumain activity", "setting": "legumain [1]", "result": 5.8}
    ]},
    {"substance": "Ac-[dY][Tic]TD-{ACC}", "values": [
      {"measurement": "optimal pH for legumain activity", "setting": "legumain [1]", "result": 4.5}
    ]},
    {"substance": "Cbz-Ala-Ala-Asn-{ACC}", "values": [
      {"measurement": "kcat/Km", "setting": "legumain [2]", "result": 36100, "unit": "s^−1M^−1"},
      {"measurement": "times faster cleaved than its P1-Asp analog", "setting": "legumain [2]; ratio of kcat/Km, Z-AAN-ACC versus Z-AAD-ACC", "result": "~ 22"}
    ]},
    {"substance": "Cbz-Ala-Ala-Asn-{AMC}", "values": [
      {"measurement": "Km", "setting": "[3]", "result": 25.7, "unit": "µM"}
    ]},
    {"substance": "Cbz-Ala-Ala-Asp-{ACC}", "values": [
      {"measurement": "kcat/Km", "setting": "legumain [2]", "result": 1600, "unit": "M⁻¹ s⁻¹"}
    ]},
    {"substance": "biotin-6-ahx-D-Tyr-Tic-Ser-Asp-AOMK [MP-L01] [listing 1 of 2 here]", "values": [
      {"measurement": "potency relative to either methylated probes (MP-L02 or -L03)", "setting": "legumain [4]", "result": "approximately 100 fold"},
      {"measurement": "pH dependence of legumain binding", "setting": "legumain [5]; lysates of M38L cells, pH 5.8 versus 7.4", "result": "only detected at pH 5.8 and not at 7.4"},
      {"measurement": "probe labelling of legumain", "setting": "legumain [5]", "result": "only binds legumain"},
      {"measurement": "probe labelling of caspase-3", "setting": "caspase-3 [6]", "result": "could not detect such activity"},
      {"measurement": "binding to cellular, secreted or recombinant prolegumain (56 kDa)", "setting": "prolegumain (56 kDa)", "result": "did not bind"},
      {"measurement": "binding to recombinant auto-activated legumain", "setting": "[7]", "result": "bound by MP-L01 at pH 5.8 and not at pH 7.2"},
      {"measurement": "inhibition rate constant (kobs/I) relative to the two methylated probes (MP-L02 and -L03)", "setting": "[8]; 2.5 nM enzyme, Z-Ala-Ala-Asn-AMC substrate, pH 5.8, 30°C", "result": "approximately 100 fold"},
      {"measurement": "binding to active caspase-3", "setting": "caspase-3 [9]", "result": "only weakly bound"}
    ]},
    {"substance": "biotin-6-ahx-D-Tyr-Tic-Ser-Asp-AOMK [MP-L01] [listing 2 of 2 here]", "values": [
      {"measurement": "incubation time for maximal detection of probe in cells", "setting": "[10]", "result": "8 to 24", "unit": "h"}
    ]},
    {"substance": "biotin-6-ahx-DEVD-AOMK [reference compound]", "values": [
      {"measurement": "probe labelling of legumain", "setting": "legumain [5]", "result": "labels both legumain and caspase-3"},
      {"measurement": "probe labelling of caspase-3", "setting": "caspase-3 [6]", "result": "labels both legumain and caspase-3"},
      {"measurement": "inhibition of recombinant legumain (kobs/I), lower efficiency than MP-L01", "setting": "[8]", "result": 20, "unit": "fold"},
      {"measurement": "binding to active caspase-3", "setting": "caspase-3 [9]", "result": "strongly bound"}
    ]}
  ]
}
